Source: patent publication US8394952B2 (Vertex Pharmaceuticals Incorporated, priority 2006, dated 2013)
“And” between values parts separate entries of the source, which are not always exact repeats. Equal entries are not always repeated.

Target: Plk1 (Homo sapiens, UniProt P53350)
Test: biochemical

Sequence of Plk1 (P53350 20-338): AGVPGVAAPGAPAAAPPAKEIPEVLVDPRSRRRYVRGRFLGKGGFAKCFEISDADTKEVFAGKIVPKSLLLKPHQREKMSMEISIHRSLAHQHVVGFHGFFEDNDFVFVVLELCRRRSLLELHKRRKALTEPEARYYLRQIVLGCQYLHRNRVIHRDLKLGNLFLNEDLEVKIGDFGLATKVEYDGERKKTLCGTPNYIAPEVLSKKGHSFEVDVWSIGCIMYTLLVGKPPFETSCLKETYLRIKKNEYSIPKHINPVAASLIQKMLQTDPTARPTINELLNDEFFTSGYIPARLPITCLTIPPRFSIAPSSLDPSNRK

Compound | Ki
CNC(=O)c1ccc(Nc2ncc3c(n2)N(CC(F)(F)C(F)(F)F)CC(C)(C)C(=O)N3C)c(OC)c1 [Compound I-160, 4-(9-(2,2,3,3,3-pentafluoropropyl)-6,7,8,9-tetrahydro-5,7,7-trimethyl-6-oxo-5H-pyrimido[4,5-b][1,4]diazepin-2-ylamino)-3-methoxy-N-methylbenzamide] | 10 to 100 nM
CN1C(=O)C(C)(C)CN(C2CCCC2)c2nc(Nc3cccc(-c4cc[nH]n4)c3)ncc21 [Compound I-137, 2-(3-(1H-pyrazol-3-yl)phenylamino)-9-cyclopentyl-8,9-dihydro-5,7,7-trimethyl-5H-pyrimido[4,5-b][1,4]diazepin-6(7H)-one] | 10 to 100 nM
COc1cc(C(=O)NC2CCN(C)CC2)ccc1Nc1ncc2c(n1)N(C1CCCC1)C[C@H](C)C(=O)N2C [Compound I-21, 4-((S)-9-cyclopentyl-6,7,8,9-tetrahydro-5,7-dimethyl-6-oxo-5H-pyrimido[4,5-b][1,4]diazepin-2-ylamino)-3-methoxy-N-(1-methylpiperidin-4-yl)benzamide] | < 10 nM
COc1cc(C(=O)O)ccc1Nc1ncc2c(n1)N(C1CCCC1)CCC(=O)N2C [Compound I-1, 4-(9-Cyclopentyl-6,7,8,9-tetrahydro-5-methyl-6-oxo-5H-pyrimido[4,5-b][1,4]diazepin-2-ylamino)-3-methoxybenzoic acid] | 10 to 100 nM
COc1cc(C(=O)O)ccc1Nc1ncc2c(n1)N(C1CCCC1)CC(C)(C)C(=O)N2C [Compound I-120, 4-(9-cyclopentyl-6,7,8,9-tetrahydro-5,7,7-trimethyl-6-oxo-5H-pyrimido[4,5-b][1,4]diazepin-2-ylamino)-3-methoxybenzoic acid] | 10 to 100 nM
CN1C(=O)C(C)(C)CN(C2CCCC2)c2nc(Nc3ccc4[nH]ncc4c3)ncc21 [Compound I-114, 2-(1H-indazo-5-ylamino)-9-cyclopentyl-8,9-dihydro-5,7,7-trimethyl-5H-pyrimido[4,5-b][1,4]diazepin-6(7H)-one] | 10 to 100 nM
COc1ccccc1Nc1ncc2c(n1)N(C1CCCC1)CC(C)(C)C(=O)N2C [Compound I-102, 2-(2-methoxyphenylamino)-9-cyclopentyl-8,9-dihydro-5,7,7-trimethyl-5H-pyrimido[4,5-b][1,4]diazepin-6(7H)-one] | 10 to 100 nM
COC(=O)Nc1ccc(Nc2ncc3c(n2)N(C2CCCC2)CC(C)(C)C(=O)N3C)c(OC)c1 [Compound I-103, Methyl 4-(9-cyclopentyl-5,7,7-trimethyl-6-oxo-6,7,8,9-tetrahydro-5H-pyrimido[4,5-b][1,4]diazepin-2-ylamino)-3-methoxyphenylcarbamate] | < 10 nM
CN1C(=O)C(C)(C)CN(C2CCCC2)c2nc(Nc3cccc(NS(C)(=O)=O)c3)ncc21 [Compound I-150, N-[3-(9-cyclopentyl-5,7,7-trimethyl-6-oxo-6,7,8,9-tetrahydro-5H-pyrimido[4,5-b][1,4]diazepin-2-ylamino)-phenyl]-methanesulfonamide] | 10 to 100 nM
CN1C(=O)C(C)(C)CN(C2CCCC2)c2nc(Nc3cccc(C(=O)N4CC(F)(C5CC5)C4)c3)ncc21 [Compound I-152, 9-Cyclopentyl-2-[3-(3-cyclopropyl-3-fluoro-azetidine-1-carbonyl)-phenylamino]-5,7,7-trimethyl-5,7,8,9-tetrahydro-pyrimido[4,5-b][1,4]diazepin-6-one] | 10 to 100 nM
CN1C(=O)C(C)(C)CN(C2CCCC2)c2nc(Nc3cccc(C(=O)NC4CC4)c3)ncc21 [Compound I-159, 3-(9-cyclopentyl-6,7,8,9-tetrahydro-5,7,7-trimethyl-6-oxo-5H-pyrimido[4,5-b][1,4]diazepin-2-ylamino)-N-cyclopropylbenzamide] | 10 to 100 nM
COc1cc(C(=O)N[C@@H]2CCC[C@H]2O)ccc1Nc1ncc2c(n1)N(C1CCCC1)CC1(CC1)C(=O)N2C [Compound I-272, 4-(9′-cyclopentyl-5′-methyl-6′-oxo-5′,6′,8′,9′-tetrahydrospiro[cyclopropane-1,7′-pyrimido[4,5-b][1,4]diazepine]-2′-ylamino)-N-((1R,2R)-2-hydroxycyclopentyl)-3-methoxybenzamide] | < 10 nM
CC(=O)Nc1c(F)ccc(Nc2ncc3c(n2)N(C2CCCC2)CC(C)(C)C(=O)N3C)c1F [Compound I-165, N-(3-(9-cyclopentyl-6,7,8,9-tetrahydro-5,7,7-trimethyl-6-oxo-5H-pyrimido[4,5-b][1,4]diazepin-2-ylamino)-2,6-difluorophenyl)acetamide] | 10 to 100 nM
CN1C(=O)C(C)(C)CN(C2CCCC2)c2nc(Nc3cccc4cn[nH]c34)ncc21 [Compound I-89, 2-(1H-indazo-7-ylamino)-9-cyclopentyl-8,9-dihydro-5,7,7-trimethyl-5H-pyrimido[4,5-b][1,4]diazepin-6(7H)-one] | 10 to 100 nM
CN1C(=O)C(C)(C)CN(C2CCCC2)c2nc(Nc3cccc(NC(=O)N4CCCCC4)c3)ncc21 [Compound I-164, N-(3-(9-cyclopentyl-6,7,8,9-tetrahydro-5,7,7-trimethyl-6-oxo-5H-pyrimido[4,5-b][1,4]diazepin-2-ylamino)phenyl)piperidine-1-carboxamide] | 10 to 100 nM
COc1cc(C(=O)N[C@H]2CCOC2)ccc1Nc1ncc2c(n1)N(C1CCCC1)CC1(CC1)C(=O)N2C [Compound I-179, (S)-4-(9′-cyclopentyl-5′-methyl-6′-oxo-5′,6′,8′,9′-tetrahydrospiro[cyclopropane-1,7′-pyrimido[4,5-b][1,4]diazepine]-2′-ylamino)-3-methoxy-N-(tetrahydrofuran-3-yl)benzamide] | < 10 nM
CN1C(=O)C(C)(C)CN(C2CCCC2)c2nc(Nc3cccc4[nH]ncc34)ncc21 [Compound I-81, 2-(1H-indazol-4-ylamino)-9-cyclopentyl-8,9-dihydro-5,7,7-trimethyl-5H-pyrimido[4,5-b][1,4]diazepin-6(7H)-one] | 10 to 100 nM
COc1cc(C(=O)NC2CCN(C(=O)OC(C)(C)C)CC2)ccc1Nc1ncc2c(n1)N(C1CCCC1)CCC(=O)N2C [Compound I-5, 4-(9-cyclopentyl-6,7,8,9-tetrahydro-5-methyl-6-oxo-5H-pyrimido[4,5-b][1,4]diazepin-2-ylamino)-3-methoxy-N-[1-(tert-butoxycarbonyl)piperidin-4-yl]benzamide] | < 10 nM
CNC(=O)c1ccc(Nc2ncc3c(n2)N(C(C)C)CC(C)(C)C(=O)N3C)c(OC)c1 [Compound I-35, 4-(6,7,8,9-tetrahydro-9-isopropyl-5,7,7-trimethyl-6-oxo-5H-pyrimido[4,5-b][1,4]diazepin-2-ylamino)-3-methoxy-N-methylbenzamide] | 10 to 100 nM
COc1cc(C(=O)N(C)C)ccc1Nc1ncc2c(n1)N(C1CCCC1)CC(C)(C)C(=O)N2C [Compound I-215, 4-(9-cyclopentyl-5,7,7-trimethyl-6-oxo-6,7,8,9-tetrahydro-5H-pyrimido[4,5-b][1,4]diazepin-2-ylamino)-3-methoxy-N,N-dimethylbenzamide] | 10 to 100 nM
CC[C@H]1CN(C2CCCC2)c2nc(Nc3ccc(C(=O)NC4CCC4)cc3OC)ncc2N(C)C1=O [Compound I-119, 4-((S)-9-cyclopentyl-7-ethyl-6,7,8,9-tetrahydro-5-methyl-6-oxo-5H-pyrimido[4,5-b][1,4]diazepin-2-ylamino)-N-cyclobutyl-3-methoxybenzamide] | < 10 nM
COc1cc(C(=O)NC2CCN(C)CC2)ccc1Nc1ncc2c(n1)N(C1CCCC1)CC1(CC1)C(=O)N2C [Compound I-76, 4-(9′-cyclopentyl-5′-methyl-6′-oxo-5′,6′,8′,9′-tetrahydrospiro[cyclopropane-1,7′-pyrimido[4,5-b][1,4]diazepine]-2′-ylamino)-3-methoxy-N-(1-methylpiperidin-4-yl)benzamide] | < 10 nM
CN1CCN(c2ccc(Nc3ncc4c(n3)N(C3CCCC3)CC(C)(C)C(=O)N4C)cc2)CC1 [Compound I-85, 2-(4-(4-methylpiperazin-1-yl)phenylamino)-9-cyclopentyl-8,9-dihydro-5,7,7-trimethyl-5H-pyrimido[4,5-b][1,4]diazepin-6(7H)-one] | < 10 nM
CNC(=O)c1ccc(Nc2ncc3c(n2)N(CC2CNCCO2)CC(C)(C)C(=O)N3C)c(OC)c1 (stereo not drawn) [Compound I-192, 3-methoxy-N-methyl-4-(5,7,7-trimethyl-9-(morpholin-2-ylmethyl)-6-oxo-6,7,8,9-tetrahydro-5H-pyrimido[4,5-b][1,4]diazepin-2-ylamino)benzamide] | < 10 nM and 10 to 100 nM
CN1C(=O)C(C)(C)CN(C2CCCC2)c2nc(Nc3ccc(CN4CCOCC4)cc3)ncc21 [Compound I-86] | 10 to 100 nM
CNC(=O)c1ccc(Nc2ncc3c(n2)N([C@@H]2CCCN(C)C2)CC(C)(C)C(=O)N3C)c(OC)c1 [Compound I-96, 4-(6,7,8,9-tetrahydro-5,7,7-trimethyl-9-((R)-1-methylpiperidine-3-yl)-6-oxo-5H-pyrimido[4,5-b][1,4]diazepin-2-ylamino)-3-methoxy-N-methylbenzamide] | < 10 nM
CN1C(=O)C(C)(C)CN(C2CCCC2)c2nc(Nc3ccc(N4CCOCC4)cc3)ncc21 [Compound I-63, 2-(4-morpholinophenylamino)-9-cyclopentyl-8,9-dihydro-5,7,7-trimethyl-5H-pyrimido[4,5-b][1,4]diazepin-6(7H)-one] | 10 to 100 nM
COc1cc(C(=O)NCc2ccco2)ccc1Nc1ncc2c(n1)N(C1CCCC1)CC(C)(C)C(=O)N2C [Compound I-193, 4-(9-cyclopentyl-5,7,7-trimethyl-6-oxo-6,7,8,9-tetrahydro-5H-pyrimido[4,5-b][1,4]diazepin-2-ylamino)-N-(furan-2-ylmethyl)-3-methoxybenzamide] | < 10 nM
CC(=O)Nc1cccc(Nc2ncc3c(n2)N(C2CCCC2)CC(C)(C)C(=O)N3C)c1 [Compound I-111, N-(3-(9-cyclopentyl-6,7,8,9-tetrahydro-5,7,7-trimethyl-6-oxo-5H-pyrimido[4,5-b][1,4]diazepin-2-ylamino)phenyl)acetamide] | 10 to 100 nM
COc1cc(C(=O)Nc2ncc(C)s2)ccc1Nc1ncc2c(n1)N(C1CCCC1)CC(C)(C)C(=O)N2C [Compound I-236, 4-(9-cyclopentyl-5,7,7-trimethyl-6-oxo-6,7,8,9-tetrahydro-5H-pyrimido[4,5-b][1,4]diazepin-2-ylamino)-3-methoxy-N-(5-methylthiazol-2-yl)benzamide] | < 10 nM
